Results published in PubChem BioAssay AID1919007 (Molecular Pharmacology Branch, DTP, NCI, 2023).

Tested on: A498 complex spheroids with HUVEC/MSC, growth
Experiment: Anticancer human tumor A498 cell line growth inhibition [AhR];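 further: seven day exposure starting three days after spheroid seeding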;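 on viability, T/C: luminescence signal used as a surrogate for viable cells; luminescence viability scaled so 100% equals DMSO vehicle wells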
Conditions: for viability, T/C: stronger effect = lower value
From the text: Multicellular complex tumor spheroid response to aryl hydrocarbon receptor antagonists in combination with a variety of drugs and investigational agents in selected tumor cell lines
The current study was undertaken to assess response to aryl hydrocarbon receptor antagonists in combination with standard-of-care drugs and investigational agents in solid tumor complex spheroid models. Complex spheroids include a stromal component modeled by human endothelial cells (HUVEC) and fibroblasts modeled by human mesenchymal stem cells (MSCs). The concentration ranges selected for each drug and investigational agent were based upon clinically achievable concentrations if the clinical Cmax of the agent was known.
Compounds. The drugs and investigational agents: BAY 2416964 (NSC825713), GNF351 (NSC835774), CH-223191 (NSC835775), CPI-455 (NSC825282), aza-TdCyd (NSC777586), decitabine (NSC127716), belinostat (NSC758774), entinostat (NSC756642), pevonedistat (NSC761192), tazemetostat (NSC777109), talazoparib (NSC765396), olaparib (NSC753686), selinexor (NSC780203), nedisertib (M3814, NSC802822), bortezomib (NSC756655), venetoclax (NSC766270), doxorubicin (NSC123127), elimusertib (BAY189344, NSC800525), ceralasertib (AZD6738, NSC777638), TAK-243 (NSC785004), alisertib (NSC759677), etoposide (NSC141540), topotecan (NSC609699), eribulin (NSC707389), gemcitabine (NSC613327), carboplatin (NSC241240), cisplatin (NSC119875), and SN-38 (NSC673596) were obtained from the National Cancer Institute (NCI) Developmental Therapeutics Program Chemical Repository (32). The FDA-approved anticancer drug set is available from the Developmental Therapeutics Program at https://dtp.cancer.gov/organization/dscb/obtaining/available plates.htm. […] The stock solutions were prepared in dimethyl sulfoxide (DMSO, Sigma-Aldrich, St. Louis, MO, cat. D2650), except for the platinum compounds which were prepared in saline (Quality Biological, Gaithersburg, MD, cat. 114-055-101), at 800-fold the tested concentration and stored at -70 degrees C prior to their use. All drugs and investigational agents were tested over a range starting from a high concentration at or near the clinical Cmax and decreasing in half-log increments. If the clinical Cmax for an agent had not been determined, the highest concentration tested was 10 microM (Table 1).
Cell Culture. All cells were maintained in an incubator at 37 degrees C and 5% CO2 with 95% humidity. The PDC lines were cultured according to standard operating procedures established by the NCI PDMR (https://pdmr.cancer.gov). Briefly, all PDCs were thawed and cultured in Matrigel-coated flasks prepared with a working solution of 1X Ham's F-12 nutrient mix, without supplementation (Invitrogen, Waltham, MA, cat. 11765054), 100 U/mL penicillin-streptomycin (Invitrogen, cat. 15140122), and 2.5% Matrigel (Corning Inc., Corning, NY, cat. 354248) for the first three passages. All PDCs were cultured in complete DMEM/F-12 media containing advanced DMEM/F-12 (Invitrogen, cat. 12634028), 4.9% defined fetal bovine serum, heat inactivated (HyClone Laboratories Inc., Logan, UT, cat. SH30070.03HI), 389 ng/mL hydrocortisone (Sigma-Aldrich, cat. H4001), 9.7 ng/mL human EGF recombinant protein (Invitrogen, cat. PHG0313), 23.4 microg/mL adenine (Sigma-Aldrich, cat. A2786), 97.3 U/mL penicillin-streptomycin (Invitrogen, cat. 15140122), 1.9 mM L-glutamine (Invitrogen, cat. 25030081), and 9.7 microM Y-27632 dihydrochloride (Tocris Bioscience, Bristol, United Kingdom, cat. 1254). The PDCs were cultured in complete DMEM/F12 media without 10 microM Y-27632 dihydrochloride for at least two passages prior to the screen. The established cell lines NCI-H1341 and […] were cultured in DMEM/F-12, HEPES (Invitrogen, cat. 11330032), 5% defined fetal bovine serum (HyClone Laboratories Inc., cat. SH30070.03), ITS premix universal culture supplement [insulin (5 microg/mL), transferrin (5 microg/mL), and selenious acid (5 ng/mL)] […]

[1] = curve of first compound, second compound 0.1 µM
[2] = curve of first compound, second compound 0.316 µM
[3] = curve of first compound, second compound 1 µM
[4] = curve of first compound, second compound 3.16 µM
[5] = curve of first compound, second compound 10 µM
[6] = second compound 0.1 µM, first compound 0.0316 µM
[7] = second compound 0.1 µM, first compound 0.1 µM
[8] = second compound 0.1 µM, first compound 0.316 µM
[9] = second compound 0.1 µM, first compound 1 µM
[10] = second compound 0.316 µM, first compound 0.0316 µM
[11] = second compound 0.316 µM, first compound 0.1 µM
[12] = second compound 0.316 µM, first compound 0.316 µM
[13] = second compound 0.316 µM, first compound 1 µM
[14] = second compound 1 µM, first compound 0.0316 µM
[15] = second compound 1 µM, first compound 0.1 µM
[16] = second compound 1 µM, first compound 0.316 µM
[17] = second compound 1 µM, first compound 1 µM
[18] = second compound 3.16 µM, first compound 0.0316 µM
[19] = second compound 3.16 µM, first compound 0.1 µM
[20] = second compound 3.16 µM, first compound 0.316 µM
[21] = second compound 3.16 µM, first compound 1 µM
[22] = second compound 10 µM, first compound 0.0316 µM
[23] = second compound 10 µM, first compound 0.1 µM
[24] = second compound 10 µM, first compound 0.316 µM
[25] = second compound 10 µM, first compound 1 µM

With COc1cc(Nc2ncc3c(n2)-c2ccc(Cl)cc2C(c2c(F)cccc2OC)=NC3)ccc1C(=O)O + Cc1ccccc1N=Nc1ccc(NC(=O)c2ccnn2C)c(C)c1 the IC50 [1] was 1920 nM, the IC50 [2] was 1830 nM and the IC50 [3] was 1510 nM. The IC50 [4] was 1350 nM, the IC50 [5] was 2550 nM and the viability, T/C [6] was 70.2%. The viability, T/C [7] was 73%, the viability, T/C [8] was 65.8% and the viability, T/C [9] was 54.4%. For the same molecule, the viability, T/C (second compound 0.1 µM, first compound 3.16 µM) was 46.6%, the viability, T/C (second compound 0.1 µM, first compound 10 µM) was 33.5% and the viability, T/C [10] was 70%. It also gave a viability, T/C [11] of 72.4%, a viability, T/C [12] of 70.7% and a viability, T/C [13] of 54.9%. The viability, T/C (second compound 0.316 µM, first compound 3.16 µM) was 45.2%, the viability, T/C (second compound 0.316 µM, first compound 10 µM) was 34.2% and the viability, T/C [14] was 67.8%. It also gave a viability, T/C [15] of 67.2%, a viability, T/C [16] of 59.6% and a viability, T/C [17] of 56.5%. It also gave a viability, T/C (second compound 1 µM, first compound 3.16 µM) of 41.3%, a viability, T/C (second compound 1 µM, first compound 10 µM) of 31.8% and a viability, T/C [18] of 69.2%. The viability, T/C [19] was 72.7%, the viability, T/C [20] was 62.2% and the viability, T/C [21] was 49.9%. The viability, T/C (second compound 3.16 µM, first compound 3.16 µM) was 44.8%, the viability, T/C (second compound 3.16 µM, first compound 10 µM) was 31.8% and the viability, T/C [22] was 63.9%. The viability, T/C [23] was 63.4%, the viability, T/C [24] was 56.7% and the viability, T/C [25] was 59%. For the same molecule, the viability, T/C (second compound 10 µM, first compound 3.16 µM) was 47.9% and the viability, T/C (second compound 10 µM, first compound 10 µM) was 35.1%.

O=C(C=Cn1cnc(-c2cc(C(F)(F)F)cc(C(F)(F)F)c2)n1)NNc1cnccn1 + Cc1ccccc1N=Nc1ccc(NC(=O)c2ccnn2C)c(C)c1 showed an IC50 [1] of 97.1 nM, an IC50 [2] of 55.1 nM and an IC50 [3] of 51.9 nM. The IC50 [4] was 43.5 nM, the IC50 [5] was 61.8 nM and the viability, T/C (second compound 0.1 µM, first compound 0.00949 µM) was 88.7%. The viability, T/C (second compound 0.1 µM, first compound 0.03 µM) was 77.2%, the viability, T/C (second compound 0.1 µM, first compound 0.0949 µM) was 47.9% and the viability, T/C (second compound 0.1 µM, first compound 0.3 µM) was 30.3%. It also gave a viability, T/C (second compound 0.1 µM, first compound 0.949 µM) of 19.8%, a viability, T/C (second compound 0.1 µM, first compound 3 µM) of 13.3% and a viability, T/C (second compound 0.316 µM, first compound 0.00949 µM) of 74.7%. For the same molecule, the viability, T/C (second compound 0.316 µM, first compound 0.03 µM) was 62.4%, the viability, T/C (second compound 0.316 µM, first compound 0.0949 µM) was 39.1% and the viability, T/C (second compound 0.316 µM, first compound 0.3 µM) was 21.9%. It also gave a viability, T/C (second compound 0.316 µM, first compound 0.949 µM) of 19.1%, a viability, T/C (second compound 0.316 µM, first compound 3 µM) of 16.2% and a viability, T/C (second compound 1 µM, first compound 0.00949 µM) of 56.9%. It also gave a viability, T/C (second compound 1 µM, first compound 0.03 µM) of 75.9%, a viability, T/C (second compound 1 µM, first compound 0.0949 µM) of 31.9% and a viability, T/C (second compound 1 µM, first compound 0.3 µM) of 17.9%. The viability, T/C (second compound 1 µM, first compound 0.949 µM) was 17.6%, the viability, T/C (second compound 1 µM, first compound 3 µM) was 20.2% and the viability, T/C (second compound 3.16 µM, first compound 0.00949 µM) was 70.5%. For the same molecule, the viability, T/C (second compound 3.16 µM, first compound 0.03 µM) was 62%, the viability, T/C (second compound 3.16 µM, first compound 0.0949 µM) was 24.6% and the viability, T/C (second compound 3.16 µM, first compound 0.3 µM) was 29.8%. For the same molecule, the viability, T/C (second compound 3.16 µM, first compound 0.949 µM) was 21.4%, the viability, T/C (second compound 3.16 µM, first compound 3 µM) was 19.4% and the viability, T/C (second compound 10 µM, first compound 0.00949 µM) was 73.8%. It also gave a viability, T/C (second compound 10 µM, first compound 0.03 µM) of 68.4%, a viability, T/C (second compound 10 µM, first compound 0.0949 µM) of 37.8% and a viability, T/C (second compound 10 µM, first compound 0.3 µM) of 29.6%. For the same molecule, the viability, T/C (second compound 10 µM, first compound 0.949 µM) was 20.3% and the viability, T/C (second compound 10 µM, first compound 3 µM) was 18.8%.

Molecule Nc1ncn(C2CC(O)C(CO)O2)c(=O)n1 (stereo not given) + Cc1ccccc1N=Nc1ccc(NC(=O)c2ccnn2C)c(C)c1 has an IC50 [1] of over 1000 nM, an IC50 [2] of over 1000 nM and an IC50 [3] of over 1000 nM. The IC50 [4] was over 1000 nM, the IC50 [5] was over 1000 nM and the viability, T/C (second compound 0.1 µM, first compound 0.00316 µM) was 88.8%. For the same molecule, the viability, T/C (second compound 0.1 µM, first compound 0.01 µM) was 91.7%, the viability, T/C [6] was 88.8% and the viability, T/C [7] was 93.6%. The viability, T/C [8] was 86.2%, the viability, T/C [9] was 77.1% and the viability, T/C (second compound 0.316 µM, first compound 0.00316 µM) was 97%. For the same molecule, the viability, T/C (second compound 0.316 µM, first compound 0.01 µM) was 97.5%, the viability, T/C [10] was 97.4% and the viability, T/C [11] was 84%. The viability, T/C [12] was 78.5%, the viability, T/C [13] was 76.1% and the viability, T/C (second compound 1 µM, first compound 0.00316 µM) was 81.2%. It also gave a viability, T/C (second compound 1 µM, first compound 0.01 µM) of 87.3%, a viability, T/C [14] of 84.4% and a viability, T/C [15] of 74.9%. The viability, T/C [16] was 74.6%, the viability, T/C [17] was 70.6% and the viability, T/C (second compound 3.16 µM, first compound 0.00316 µM) was 84.9%. It also gave a viability, T/C (second compound 3.16 µM, first compound 0.01 µM) of 87.2%, a viability, T/C [18] of 85.8% and a viability, T/C [19] of 73.9%. The viability, T/C [20] was 80%, the viability, T/C [21] was 64% and the viability, T/C (second compound 10 µM, first compound 0.00316 µM) was 90.7%. It also gave a viability, T/C (second compound 10 µM, first compound 0.01 µM) of 86.7%, a viability, T/C [22] of 76.9% and a viability, T/C [23] of 85.3%. It also gave a viability, T/C [24] of 74.8% and a viability, T/C [25] of 68%.

With Cc1cncc(-c2nc(NCCc3c[nH]c4ccccc34)c3ncn(C(C)C)c3n2)c1 the viability, T/C (compound 0.1 µM) was 90% [middle of 20 runs], the viability, T/C (compound 0.316 µM) was 95.3% [middle of 20 runs] and the viability, T/C (compound 1 µM) was 87.7% [middle of 20 runs]. For the same molecule, the viability, T/C (compound 10 µM) was 4.87% [middle of 19 runs] and the IC50 (compound alone, run of 08/16/2022) was 3.7 µM [middle of 24 runs].
